In publication PMC6547622 (ACS Omega, 2019):

Tests used:
Type in all cases: biochemical
αPMM/PGM = target: T1, αPMM/PGM (Pseudomonas aeruginosa, UniProt P26276); experiment: Michaelis Menten kinetics of αPMM/PGM; settings: read-out: Km(αG1P), variable αG1P 0–200 µM
T1 sequence (P26276 1-463): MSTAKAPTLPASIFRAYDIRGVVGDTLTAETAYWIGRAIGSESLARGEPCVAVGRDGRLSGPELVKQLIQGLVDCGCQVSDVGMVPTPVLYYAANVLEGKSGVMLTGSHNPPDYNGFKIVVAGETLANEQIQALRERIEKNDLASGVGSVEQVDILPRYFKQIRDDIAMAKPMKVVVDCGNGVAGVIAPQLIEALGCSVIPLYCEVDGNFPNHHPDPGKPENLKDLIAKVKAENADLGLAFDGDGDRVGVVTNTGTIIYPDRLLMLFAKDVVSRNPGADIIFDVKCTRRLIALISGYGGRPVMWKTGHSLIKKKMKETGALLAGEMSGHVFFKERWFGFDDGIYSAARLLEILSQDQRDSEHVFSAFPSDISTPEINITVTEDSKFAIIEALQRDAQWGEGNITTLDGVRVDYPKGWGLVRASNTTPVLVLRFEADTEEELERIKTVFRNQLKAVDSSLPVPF

βPGM from L. lactis = βPGM from L. lactis (Lactococcus lactis subsp. lactis, UniProt P71447); experiment: IC50 determination of βPGM
[1] = target: T2, αPMM/PGM from P. aeruginosa (Pseudomonas aeruginosa, UniProt P26276); experiment: IC50 determination of αPMM/PGM
T2 sequence (P26276 1-463): T1 sequence (P26276 1-463)

SMILES | Km (αPMM/PGM) [µM] | IC50 (βPGM from L. lactis) [µM] | Ki (βPGM from L. lactis) [µM] | IC50 [1] [µM] | Ki [1] [µM]
O=P(O)(O)O[C@H]1O[C@H](CO)[C@@H](O)[C@H](O)[C@H]1O [αG1P, glucose 1-phosphate] | 20 | – | – | – | –
O=P(O)(O)OC[C@H]1O[C@@](O)(CF)[C@H](O)[C@@H](O)[C@@H]1O [compound 2, 1-Deoxy-1-monofluoro-α-D-gluco-heptulose 7-Phosphate] | – | 183 ± 14 | 92 ± 7 | 234 ± 29 | 117 ± 14
O=P(O)(O)OC[C@H]1O[C@@](O)(C(F)F)[C@H](O)[C@@H](O)[C@@H]1O [compound 3, 1-Deoxy-1,1-difluoro-α-D-gluco-heptulose 7-Phosphate] | – | 214 ± 11 | 107 ± 6 | 288 ± 37 | 144 ± 18
C[C@]1(O)O[C@H](COP(=O)(O)O)[C@@H](O)[C@H](O)[C@H]1O [compound 1, 1-Deoxy-α-D-gluco-heptulose 7-Phosphate] | – | 113 ± 3 | 57 ± 2 | 131 ± 1 | 65 ± 0.5
